Several values for one entry are separate records, joined by “and”; a condition that tells them apart may be missing. Equal values may be shown once.
Test system: HIV-1JR-FL Env S375Y on HEK293T cells
Type: binding
Settings: JRFL S375Y; temsavir 10 µM; listed as TMR

## COc1cnc(-n2cnc(C)n2)c2[nH]cc(C(=O)C(=O)N3CCN(C(=O)c4ccccc4)CC3)c12 [Temsavir, temsavir]
  sCD4 binding (+TMR) - Fold over DMSO: 1.015 and 0.9829 and 1.003

Source: PMC10593844, “Structure-function analyses reveal key molecular determinants of HIV-1 CRF01_AE resistance to the entry inhibitor temsavir” (Nature Communications, 2023)
